We go through six compounds from patent US20230097603A1, “NICOTINAMIDE MONONUCLEOTIDE DERIVATIVES FOR THE TREATMENT OF ARRHYTHMIA” (NUVAMID SA, priority 2020, published 2023).

Data set [1] concerns infarction. The following applies: ischaemia of at least 30 minutes and reperfusion of at least 60 minutes; cited from earlier work.
Data set [2] relates to ischaemia-reperfusion rat. Put plainly: Arrhythmia induced by ischaemia-reperfusion in anaesthetised rats. Format: in vivo. The following applies: for ventricular fibrillation during the ischaemia (effect in words) / ventricular tachycardia during the ischaemia (effect in words) / incidence of ventricular tachycardia during reperfusion (effect in words) / duration of ventricular tachycardia during reperfusion (effect in words) / ventricular fibrillation during reperfusion (effect in words) / mortality during the reperfusion period (effect in words): iv; for ventricular fibrillation during the ischaemia (effect in words) / ventricular tachycardia during the ischaemia (effect in words): I-C 185 mg/kg 30 min before, cariporide 0.3 mg/kg 5 min before ischaemia; for incidence of ventricular tachycardia during reperfusion (effect in words) / duration of ventricular tachycardia during reperfusion (effect in words) / ventricular fibrillation during reperfusion (effect in words) / mortality during the reperfusion period (effect in words): I-C 185 mg/kg, cariporide 0.3 mg/kg; for duration of ventricular tachycardia during reperfusion (effect in words) / ventricular fibrillation during reperfusion (effect in words): vs carrier; for mortality during the reperfusion period (effect in words): carrier group 25% death. As to the method:
Arrhythmias were obtained in an acute model of ischaemia-reperfusion in rats.
The rats were first anaesthetised, then intubated and mechanically ventilated, before being prepared for surgery.
Catheters were then placed in the carotid artery in order to measure the arterial pressure and in the caudal vein for the perfusion of drugs. The arterial catheter consists in a catheter filled with fluid which sends the pressure to a transducer located nearby. The mean arterial pressure is calculated electronically and recorded continuously.
A three-lead electrocardiogram (ECG) was recorded throughout the procedure by means of needle electrodes attached to the limbs.
The modifications to the ECG, mean arterial pressure (MAP) and the heart rate were measured before and during the occlusion-reperfusion period. The definitions of the arrhythmias are based on those described in the Lambeth conventions (Walker and al., The Lambeth conventions: guidelines for the study of arrhythmias in ischaemia infarction, and reperfusion, Cardiovascular Research, 1988, 22(7), 447-455). The ectopic activity has been categorized as a single ventricular premature beat (VPB), a ventricular tachycardia (VT, four or more consecutive VPBs) or a ventricular fibrillation (VF, inability to distinguish individual QRS complexes and to measure the rate). The arterial pressure traces were referred to in order to confirm which type of ectopic activity was produced, in particular to distinguish between polymorphic VT and VF. When the first is produced, the arterial pressure is generally still pulsatile whereas with VF, the arterial pressure falls rapidly towards zero and is no longer pulsatile. The VF can be sustained or can spontaneously return to a normal sinusoidal rhythm in rats. In all the experiments, the incidences of TV and VF as well as the duration of the ventricular tachycardia were noted.
The heart was then exposed by a left intercostal thoracotomy. After opening the pericardium, a 6.0 silk stitch was placed around the left coronary artery on a polypropylene tube in order to form a collar. The hearts were subjected to an ischaemia for 7 minutes by tightening the suture 5 minutes after the treatment. Finally, the collar occluder was released in order to allow the reperfusion of the myocardial tissue for 10 minutes. At the end of the reperfusion period, the rats were euthanised by cervical dislocation while still anaesthetised.
The means± the standard error on the mean are presented.
The statistical analysis was carried out using the GraphPad Prism 5 software. The Fisher test was used to analyse the differences between the incidences of arrhythmias, while the chi-squared test was used to compare the incidence of mortality. The Kruskall-Wallis test was used to analyse the differences between the duration of the tachycardia and the ventricular fibrillations and the difference in the number of ventricular fibrillations.
The rats were treated by the intravenous route with a saline solution, a compound of formula I-C at 185 mg/kg (30 minutes before the ischaemia) or cariporide at 0.3 mg/kg (5 minutes before the ischaemia). The animals were subjected to a 7-minute ischaemia and a 10-minute reperfusion. Throughout the experimental phase, the arterial pressure and ECG profiles were recorded continuously. Blood was sampled 5 minutes after the end of the reperfusion and the heart was weighed.

For data set [3], the system named is arrhythmias induced by doxorubicin. Put plainly: Arrhythmia induced by doxorubicin in mice, heart rate by ECG. Format: in vivo. The following applies: for heart rate 5 days after the injection of DOX (effect in words): vs DOX + carrier. On the procedure: The goal of this study was to evaluate the effects of an i.p. administration of compounds I-C, I-J and I-K, at 180 mg/kg, on arrhythmias induced by doxorubicin. 76 male mice, 8 weeks old on arrival, were obtained from Janvier Labs, Le Genest St Isle, 53941 St Berthevin, France. Each animal was identified with an electronic chip. The powder of compounds I-C, I-J and I-K (180 mg/kg) was dissolved in the carrier (the solution was used at ambient temperature for a maximum of 1 day). […] Doxorubicin was prepared at 2 mg/mL and the administration volume was 10 mL/kg. The control group received an injection of saline solution. Each group comprises 14 to 24 mice. As indicated in the regulations relating to non-clinical laboratory studies, the groups of test and control animals have been kept under identical conditions. The envisaged duration of the study was 11 days. […] The treatment with compounds I-C, I-J and I-K was initiated after 5 days before the injection of DOX, once per day from Day 5 to Day 0. The mice were treated i.p with compounds I-C, I-J and I-K 30 minutes before the injection of DOX. The mice were treated i.p with compounds I-C, I-J and I-K during the duration of the experiment (J0 to J5) once per day. […] In particular, the heart rate was evaluated during the ECG: […]

Setting [4] is: 185 mg/kg iv 30 minutes before ischaemia, 7-minute ischaemia.
Setting [5] is: 185 mg/kg iv, 10-minute reperfusion.
Setting [6] is: DOX 20 mg/kg i.p. + compound 180 mg/kg i.p. once per day.

Entries after “also recorded” stand apart in the source; their conditions may differ.

Turning to `NC(=O)c1ccc[n+]([C@@H]2O[C@H](COP(=O)([O-])O)[C@@H](O)[C@H]2O)c1` [NMN, Nicotinamide Mononucleotide], the “protective effect against infarction” value in data set [1] was “protects the heart”.

On to `NC(=O)c1ccc[n+]([C@@H]2O[C@H](COP(=O)([O-])O)[C@@H](O)[C@H]2O)c1` [I-C], for which, in data set [2] (setting [4]), the “duration of ventricular tachycardia during the ischaemia” value was 0.2 ± 0.2 s and the “incidence of ventricular tachycardia during the ischaemia” value is on record as “approximately 9%”. Besides, in data set [2] (setting [5]), the “duration of ventricular fibrillation during reperfusion” value is 4.0±2.3 % of the duration of the reperfusion, the “incidence of ventricular fibrillation during reperfusion” value was “approximately 55%” and the “number of ventricular fibrillations during reperfusion” value is “approximately one”. In addition, in data set [2], the “ventricular fibrillation during the ischaemia (effect in words)” value was “remove the ventricular fibrillation”; the “ventricular tachycardia during the ischaemia (effect in words)” value is “significantly reduce the incidence and duration”; the “mortality during the reperfusion period (effect in words)” value was “removed mortality”. Further, in data set [2] (10-minute reperfusion), the “incidence of ventricular tachycardia during reperfusion (effect in words)” value was “no effect”, the “duration of ventricular tachycardia during reperfusion (effect in words)” value is “appeared to reduce the duration” and the “ventricular fibrillation during reperfusion (effect in words)” value is recorded as “tendency to reduce the incidence”. In data set [3] (setting [6]), the “heart rate 5 days after the injection of DOX (effect in words)” value (shortened to “heart rate 5 days … (effect in words)”) is “increase in heart rates; also recorded: significantly attenuated”.

In the case of `NC(=O)c1ccc[n+]([C@@H]2O[C@H](COP(=O)([O-])OP(=O)([O-])OC[C@H]3O[C@H]([n+]4cccc(C(N)=O)c4)[C@H](O)[C@@H]3O)[C@@H](O)[C@H]2O)c1` [I-J], in data set [3] (setting [6]), the “heart rate 5 days after the injection of DOX” value is 470.1±18.8 bpm and the “heart rate 5 days … (effect in words)” value is “increase in heart rates; also recorded: significantly attenuated”.

Consider `NC(=O)c1ccc[n+]([C@H]2O[C@H](COP(=O)([O-])OP(=O)([O-])OC[C@H]3O[C@H]([n+]4cccc(C(N)=O)c4)[C@H](O)[C@@H]3O)[C@@H](O)[C@H]2O)c1` [I-K], for which the “heart rate 5 days … (effect in words)” value in data set [3] (setting [6]) is “increase in heart rates; also recorded: significantly attenuated”.

In the case of `COc1cccc2c1C(=O)c1c(O)c3c(c(O)c1C2=O)C[C@@](O)(C(=O)CO)C[C@@H]3O[C@H]1C[C@H](N)[C@H](O)[C@H](C)O1` [doxorubicin, reference compound], the “heart rate 5 days after the injection of DOX” value in data set [3] (DOX 20 mg/kg i.p. + carrier, control mice 525.6±19.8 bpm) came to 365.1±23.9 bpm.

As for `CC(C)c1ccc(C(=O)NC(=N)N)cc1S(C)(=O)=O` [Cariporide, reference compound], in data set [2], the “ventricular fibrillation during the ischaemia (effect in words)” value is reported as “removed”, the “ventricular tachycardia during the ischaemia (effect in words)” value is given as “removed” and the “mortality during the reperfusion period (effect in words)” value was “removed”. Also, in data set [2] (10-minute reperfusion), the “incidence of ventricular tachycardia during reperfusion (effect in words)” value is “no beneficial effect”, the “duration of ventricular tachycardia during reperfusion (effect in words)” value was “tendency to be shorter” and the “ventricular fibrillation during reperfusion (effect in words)” value was “removed”.
